Tests used:
ACE = ACE (Homo sapiens, UniProt P12821); test: In vitro ACE inhibiting assay; type: biochemical; conditions: for ACE inhibiting activity (FIG. 11): purified in example 5, various concentrations
From the text: Wherein, the data of TC-1 to TC-4 are obtained from the whole plant extracts of Vitis thunbergii var. taiwaniana cultured by various plant growth substrates, respectively.
Moreover, the hot water extract of the Vitis thunbergii var. taiwaniana tea powder obtained in example 2 is used to perform the same ACE inhibiting assay, as shown in FIG. 6. […] Method A: culturing the tissue culture plantlet for 30 days, replacing the old culture medium with new culture medium, and then culturing the plantlet for another 60 days; in which the plantlet were cultured for 90 days. Method B: culturing the tissue culture plantlet for 30 days, directly adding the new culture medium onto the old culture medium, and then culturing for another 60 days; in which the plantlet were cultured for 90 days.
Various concentration of (+)-vitisin A and ampelopsin C purified in example 5 were used to perform ACE inhibiting activity assay.

[1] = test system: spontaneous hypertensive rats (SHRs); test: 24-hour blood pressure test of SHRs after single oral administration; type: in vivo, rat; conditions: single oral administration 10 mg/kg, versus control fed distilled water
Procedure: The Vitis thunbergii var. taiwaniana extracts of the present invention were used in the in vivo blood pressure regulation assay. The present embodiment was performed on 24 heads of five- to six-week old male spontaneous hypertensive rats (SHRs). The rats were housed for 7 weeks and then used for the assay while they were about twelve- to thirteen-week old. The SHRs were randomly divided into experimental group (12 heads of SHRs) and control group (12 heads of SHRs). The rats of the experimental group were fed with the Vitis thunbergii var. taiwaniana extract obtained in example 1, and the rats of the control group were fed with distilled water for instead. After oral administration by feeding tube, the blood pressure of all SHRs was measured for a certain time interval.
Similarly, the hot water extract of the roots and stems of the Vitis thunbergii var. taiwaniana cultivated in field for 5 to 6 months, which was transferred from tissue culture plantlets, was used in a 24-hour blood pressure test, as shown in FIG. 7 (the rats of the control group were fed with distilled water).
Moreover, the blood pressure of the SHRs fed with (+)-vitisin A purified in example 5 was measured during 24 hours after single oral administration.

Chain of ACE (P12821 30-1306, species assumed): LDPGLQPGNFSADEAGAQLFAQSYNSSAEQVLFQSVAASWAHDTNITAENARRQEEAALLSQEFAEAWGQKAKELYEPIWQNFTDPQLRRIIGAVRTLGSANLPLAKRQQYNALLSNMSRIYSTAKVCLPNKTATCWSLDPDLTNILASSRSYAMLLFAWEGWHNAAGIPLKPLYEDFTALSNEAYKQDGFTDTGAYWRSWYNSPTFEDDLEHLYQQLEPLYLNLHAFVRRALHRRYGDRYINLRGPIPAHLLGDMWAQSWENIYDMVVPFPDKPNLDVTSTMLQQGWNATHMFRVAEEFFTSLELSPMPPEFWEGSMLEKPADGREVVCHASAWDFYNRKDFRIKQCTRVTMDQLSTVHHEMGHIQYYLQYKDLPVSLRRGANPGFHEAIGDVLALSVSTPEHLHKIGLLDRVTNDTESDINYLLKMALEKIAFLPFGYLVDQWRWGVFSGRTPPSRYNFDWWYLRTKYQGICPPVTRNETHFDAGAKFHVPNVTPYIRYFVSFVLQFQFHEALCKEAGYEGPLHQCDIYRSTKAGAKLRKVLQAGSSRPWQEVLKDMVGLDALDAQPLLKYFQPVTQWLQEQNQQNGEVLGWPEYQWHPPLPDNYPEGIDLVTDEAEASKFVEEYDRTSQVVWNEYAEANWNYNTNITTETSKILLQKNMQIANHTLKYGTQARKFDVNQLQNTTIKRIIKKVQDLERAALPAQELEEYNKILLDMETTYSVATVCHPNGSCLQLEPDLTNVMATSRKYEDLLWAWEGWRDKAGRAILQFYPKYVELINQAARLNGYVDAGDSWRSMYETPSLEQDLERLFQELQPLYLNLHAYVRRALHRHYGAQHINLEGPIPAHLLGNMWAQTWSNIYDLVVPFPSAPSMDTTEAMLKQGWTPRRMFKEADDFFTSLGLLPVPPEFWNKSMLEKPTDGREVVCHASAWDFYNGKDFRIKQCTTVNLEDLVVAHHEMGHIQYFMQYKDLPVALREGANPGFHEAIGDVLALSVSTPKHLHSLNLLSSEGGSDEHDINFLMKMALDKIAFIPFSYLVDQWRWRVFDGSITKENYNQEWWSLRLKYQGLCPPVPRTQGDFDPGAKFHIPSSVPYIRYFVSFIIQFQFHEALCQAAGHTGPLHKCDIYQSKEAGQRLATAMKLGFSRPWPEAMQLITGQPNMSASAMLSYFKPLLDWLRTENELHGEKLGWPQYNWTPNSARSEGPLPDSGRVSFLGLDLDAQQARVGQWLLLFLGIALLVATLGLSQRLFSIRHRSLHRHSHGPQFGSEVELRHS

Row | Compound | ACE inhibiting activity (FIG. 11) (ACE) | blood pressure of SHRs in the period of 24 hours (FIG. 12) [1] | IC50 (ACE; purified in example 5, FIG. 11) [µM]
1 | Oc1ccc([C@H]2c3c(O)cc(O)cc3[C@H]3c4c(cc(O)cc4[C@@H]2c2cc(/C=C/c4cc(O)cc5c4[C@H](c4cc(O)cc(O)c4)[C@@H](c4ccc(O)cc4)O5)ccc2O)O[C@@H]3c2ccc(O)cc2)cc1 [(+)-vitisin A] | obviously have ACE inhibiting activity | decreases significantly | 
2 | Oc1ccc([C@H]2c3c(O)cc4c5c3[C@@H]([C@H](c3ccc(O)cc3)c3c(O)cc(O)cc3[C@H]5[C@H](c3ccc(O)cc3)O4)[C@@H]2c2cc(O)cc(O)c2)cc1 [ampelopsin C] | obviously have ACE inhibiting activity |  | 18.1

Reference: patent US20100183754A1, “Extract and compound for blood pressure regulation” (Taipei Medical University, priority 2009, published 2010)
